Read-outs that look alike come from different tables or passages of the source.
Assays:
CK-1δ [1] = target: T1, CK-1δ (Homo sapiens, UniProt P48730); conditions: cited from earlier work
T1 construct: amino acids 1–294; GST (N); purchased Merck Millipore
T1 sequence (P48730 1-294): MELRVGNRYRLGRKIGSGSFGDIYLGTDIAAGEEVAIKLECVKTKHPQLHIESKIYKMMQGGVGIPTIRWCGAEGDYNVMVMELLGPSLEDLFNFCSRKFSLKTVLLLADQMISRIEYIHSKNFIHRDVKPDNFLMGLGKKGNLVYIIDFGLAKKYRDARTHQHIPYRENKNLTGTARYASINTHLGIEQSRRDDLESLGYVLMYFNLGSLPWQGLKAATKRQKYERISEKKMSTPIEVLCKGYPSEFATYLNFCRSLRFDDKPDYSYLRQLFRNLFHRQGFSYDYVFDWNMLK

hMAO-A = target: T2, hMAO-A (Homo sapiens, UniProt P21397); assay: hMAO-A inhibitory activity (kynuramine, spectrophotometric); assay type: biochemical; conditions: for inhibition at 10 µM: read-out: hMAO-A inhibition at the highest concentration tested
T2 sequence (P21397 1-527): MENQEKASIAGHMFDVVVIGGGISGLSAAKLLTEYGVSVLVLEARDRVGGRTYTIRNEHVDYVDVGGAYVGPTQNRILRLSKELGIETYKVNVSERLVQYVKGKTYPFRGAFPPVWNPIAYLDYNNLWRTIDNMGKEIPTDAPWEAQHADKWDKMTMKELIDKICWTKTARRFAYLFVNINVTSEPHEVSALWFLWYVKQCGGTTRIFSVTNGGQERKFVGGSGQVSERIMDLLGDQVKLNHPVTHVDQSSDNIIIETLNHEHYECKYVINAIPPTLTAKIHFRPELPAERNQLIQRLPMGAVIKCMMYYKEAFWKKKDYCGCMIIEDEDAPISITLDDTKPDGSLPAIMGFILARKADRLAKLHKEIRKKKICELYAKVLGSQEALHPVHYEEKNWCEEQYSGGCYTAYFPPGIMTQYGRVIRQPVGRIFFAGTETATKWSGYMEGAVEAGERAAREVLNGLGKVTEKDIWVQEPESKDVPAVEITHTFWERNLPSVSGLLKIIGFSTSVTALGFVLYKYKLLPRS

hMAO-B = target: T3, hMAO-B (Homo sapiens, UniProt P27338); assay: hMAO-B inhibitory activity (kynuramine, spectrophotometric); assay type: biochemical; conditions: for inhibition at 10 µM: read-out: hMAO-B inhibition at the highest concentration tested; for SI: hMAO-B selectivity index = IC50 (hMAO-A)/IC50 (hMAO-B): bounds assume IC50 = 10 µM for inactive isoform
T3 sequence (P27338 1-520): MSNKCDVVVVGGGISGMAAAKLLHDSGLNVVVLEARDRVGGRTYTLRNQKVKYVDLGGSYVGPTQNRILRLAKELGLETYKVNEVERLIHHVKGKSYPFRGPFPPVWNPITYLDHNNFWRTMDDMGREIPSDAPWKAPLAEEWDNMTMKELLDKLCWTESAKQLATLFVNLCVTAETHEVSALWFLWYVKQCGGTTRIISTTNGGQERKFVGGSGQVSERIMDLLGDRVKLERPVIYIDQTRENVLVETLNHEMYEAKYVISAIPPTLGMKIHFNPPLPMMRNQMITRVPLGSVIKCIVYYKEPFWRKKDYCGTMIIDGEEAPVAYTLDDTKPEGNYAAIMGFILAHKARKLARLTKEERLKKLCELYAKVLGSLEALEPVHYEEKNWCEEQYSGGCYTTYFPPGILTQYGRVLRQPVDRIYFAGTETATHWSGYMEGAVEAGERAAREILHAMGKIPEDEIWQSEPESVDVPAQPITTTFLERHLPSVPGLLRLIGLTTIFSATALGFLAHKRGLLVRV

LH5 lymphoblasts = assay: Antioxidant activity after menadione in healthy lymphoblasts; assay type: cell-based, human; conditions: LH5, 10 μM menadione 3 h, 10 µM compound pretreatment 21 h
[2] = tested on: iNOS expression in N9 microglial cells; assay: Immunomodulation in LPS-insulted N9 microglia, iNOS Western blot; assay type: cell-based; conditions: LPS-insulted N9, 10 μM
[3] = tested on: Bcl-2 expression in N9 microglial cells; assay: Antiapoptotic effects in LPS-insulted N9 microglia, Bcl-2 Western blot; assay type: cell-based
CK-1δ [4] = target: T1, CK-1δ; assay: CK-1δ activity assay (KinaseGlo luminescence); assay type: biochemical; conditions: read-out: residual CK-1δ activity (%)
Method: CK-1δ activity assay. Compounds were evaluated towards CK-1δ (Merck Millipore, recombinant human, amino acids 1–294, with N-terminal GST-tagged) with the KinaseGloR luminescence assay (Promega) […]
following procedures reported in literature.10 In detail, luminescent assays were performed in black 96-well plates, using a buffer composed of: 50 mM HEPES (pH 7.5), 1 mM EDTA, 1 mM EGTA, and 15 mM […]
solution was used as a negative control. In a typical assay, 10 μL of inhibitor solution (obtained using a 10 mM DMSO solution diluted in assay buffer to 160 μM that corresponds to a final concentration of 40 μM in the assay) and 10 μL (16 ng of CK1δ) of enzyme solution were added to the well, followed by 20 μL of assay buffer containing 0.1% casein substrate and 4 μM ATP. The final DMSO concentration in the reaction […]
After 60 min of incubation at 30 °C for CK1δ the enzymatic reactions were stopped with 40 μL of Kinase-Glo reagent (Promega). Luminescence signal (relative light unit,RLU) was recorded after 10 min at 25 °C using Tecan Infinite M100. The activity is proportional to the difference of the total and consumed ATP. The residual activities of the enzyme were calculated on the basis of maximal activities measured in the absence of inhibitor. Data were analyzed using Excel and percentages of enzyme residual activity are reported as means ± standard deviation of two independent experiments performed in […]

[5] = PAMPA-BBB permeability assay; conditions: for Papp: PAMPA, PAMPA-BBB; for CNS prediction: predicted from PAMPA Pe
LPS5 lymphoblasts [6] = assay: Antioxidant activity after menadione in ALS patient lymphoblasts; assay type: cell-based, human; conditions: for rescue of cell viability after menadione: LPS5, 10 μM menadione 3 h, 10 µM compound pretreatment 21 h
[7] = tested on: primary cerebellar granule neurons (CGNs); assay: Neuroprotection on glutamate-mediated excitotoxicity in CGNs (MTT); conditions: 100 μM glutamate; for reversal of glutamate-mediated excitotoxicity: CGNs
LPS5 lymphoblasts [8] = assay: Cell viability in mutSOD1 lymphoblasts (resazurin reduction); assay type: cell-based, human; conditions: LPS5 (mutSOD1), 1, 10, 100 µM, 24 h
[9] = Antioxidant activity after menadione in healthy lymphoblasts; assay type: cell-based, human; conditions: human, LH5 lymphoblast-derived cell line, read-out: cell viability after menadione insult
[10] = Antioxidant activity after menadione in ALS patient lymphoblasts; assay type: cell-based, human; conditions: human, LPS5 lymphoblast-derived cell line; LPS5, 50 μM menadione; read-out: cell viability after menadione insult
[11] = PAMPA
[12] = Table S3, mean ± SD, highest concentration 10 µM, read-out: IC50 hMAO-A
[13] = Table S3, mean ± SD, highest concentration 10 µM, read-out: IC50 hMAO-B
[14] = pH 7.4, Pe, in vitro permeability coefficient, PBS pH 7.4, Pe ± SEM
[15] = pH 7.4, permeability coefficient (Pe)

Compound	IC50 (hMAO-A; [12]) [µM]	IC50 (hMAO-B; [13]) [µM]	inhibition at 10 µM (hMAO-A) [%]	inhibition at 10 µM (hMAO-B) [%]	remaining activity at 40 µM (CK-1δ [4]) [%]	Papp [5, 14] [×10⁻⁶ cm/s]	CNS prediction [5]	other results
CC[C@H](CO)Nc1nc(NCc2ccc(-c3ccccn3)cc2)c2ncn(C(C)C)c2n1 [CR8]								IC50 (CK-1δ [1]; read-out: IC50 (positive control)): 0.4 µM
Nc1nc2ccc(OC(F)(F)F)cc2s1 [Compound 1, riluzole, reference compound]	8.71 ± 0.81	> 10						IC50 (hMAO-A; read-out: hMAO-A IC50): 8.7 µM; rescue of cell viability after menadione (LH5 lymphoblasts): a viability recovery trend; iNOS expression [2]: moderate decrease of iNOS expression; Bcl-2 expression ([3]; LPS-insulted N9, 1 or 10 μM): increased the level of the anti-apoptotic Bcl-2 marker; IC50 (CK-1δ [1]; read-out: IC50 against CK1δ): 16.1 µM
C#CCN[C@@H]1CCc2ccccc21 [Compound 2, rasagiline, reference compound]								iNOS expression [2]: moderate decrease of iNOS expression; Bcl-2 expression ([3]; LPS-insulted N9, 1 or 10 μM): increased the level of the anti-apoptotic Bcl-2 marker
C#CCN(CC#C)Cc1ccc2nc(N)sc2c1 [Compound 3]	> 10	> 10	< 50	< 50	64.4	24.9 ± 0.25	CNS + (CNS +: high BBB permeation predicted, Pe (×10-6 cm s-1) > 4.0)	melting point: 148 °C
C#CCNCc1ccc2nc(N)sc2c1 [Compound 4]	> 10	> 10	< 50	< 50	69	9.3 ± 0.1	CNS + (CNS +: high BBB permeation predicted, Pe (×10-6 cm s-1) > 4.0)	
C#CCN(C)Cc1ccc2nc(N)sc2c1 [Compound 5]	2.73 ± 0.39	9.31 ± 1.57			83.7	22.7 ± 0.6	CNS + (CNS +: high BBB permeation predicted, Pe (×10-6 cm s-1) > 4.0)	IC50 (hMAO-A; read-out: hMAO-A IC50): 2.7 ± 0.4 µM; SI: hMAO-B selectivity index = IC50 (hMAO-A)/IC50 (hMAO-B) (hMAO-B): 0.29; IC50 (hMAO-B; read-out: hMAO-B IC50): 9.3 ± 1.6 µM; rescue of cell viability after menadione (LH5 lymphoblasts): a better restorative activity trend than the combination; rescue of cell viability after menadione (LPS5 lymphoblasts [6]): no significant effects; Bcl-2 expression ([3]; LPS-insulted N9, 10 μM): a trend of recovery in Bcl-2 expression; reversal of glutamate-mediated excitotoxicity ([7]; compound 1, 10, 25 μM): no significant changes
C#CCNc1nc2ccc(N(CC#C)C(C)=O)cc2s1 [Compound 6]	6.88 ± 0.46	> 10			85.2	10.2 ± 0.25	CNS + (CNS +: high BBB permeation predicted, Pe (×10-6 cm s-1) > 4.0)	IC50 (hMAO-A; read-out: hMAO-A IC50): 6.9 µM; SI: hMAO-B selectivity index = IC50 (hMAO-A)/IC50 (hMAO-B) (hMAO-B): < 0.69; cytotoxic effects, cell viability (LPS5 lymphoblasts [8]): no toxicity; rescue of cell viability after menadione (LH5 lymphoblasts): a better restorative activity trend than the combination; rescue of cell viability after menadione (LPS5 lymphoblasts [6]): no significant effects; reduction of iNOS level [2]: about 60%; Bcl-2 expression ([3]; LPS-insulted N9, 10 μM): not evident; Bcl-2 expression ([3]; LPS-insulted N9, 1 or 10 μM): no increase in the level of the Bcl-2 anti-apoptotic marker; Papp [5, 15]: 10.1 ± 0.2 ×10⁻⁶ cm/s; reversal of glutamate-mediated excitotoxicity ([7]; compound at 1 and 10 μM): restored viability
C#CCNC1CCc2nc(N)sc2C1 (centres unmarked) [Compound 7]	> 10	> 10	< 50	< 50		7.7 ± 1	CNS + (CNS +: high BBB permeation predicted, Pe (×10-6 cm s-1) > 4.0)	Papp [5, 15]: 7.7 ± 1 ×10⁻⁶ cm/s
C#CCNc1nc2c(s1)CC(N(CC#C)C(C)=O)CC2 (centres unmarked) [Compound 8]	> 10	> 10	< 50	< 50		4.6 ± 0.6	CNS + (CNS +: high BBB permeation predicted, Pe (×10-6 cm s-1) > 4.0)	Papp [5, 15]: 4.6 ± 0.6 ×10⁻⁶ cm/s
CO/N=C(\C(=O)N[C@@H]1C(=O)N2C(C(=O)O)=C(COC(N)=O)CS[C@H]12)c1ccco1 [cefuroxime, reference compound]						0.62 ± 0.16	CNS - (CNS -: low BBB permeation predicted, Pe (×10-6 cm s-1) < 2.0)	
N[C@@H](CCC(=O)O)C(=O)O [glutamate, reference compound]								viability of CGNs exposed to glutamate ([7]; compared with the control): 80%
CC1=CC(=O)c2ccccc2C1=O [menadione, 2-methyl-1,4-naphthoquinone, reference compound]								viability at 3 h, 10 µM ([9]; LH5, 10 μM menadione): 80%; viability at 3 h, 50 µM ([9]; LH5, 50 μM menadione): ~40%; viability at 3 h, 50 µM [10]: ~80%; cytotoxic effect of menadione (LPS5 lymphoblasts [6]; LPS5, 10 μM menadione): unable to cause a cytotoxic effect
CCN(C)C(=O)Oc1cccc([C@H](C)N(C)C)c1 [rivastigmine]								CNS prediction [11]: CNS + (key: CNS +: high BBB permeation predicted, Pe (×10-6 cm s-1) > 4.0; CNS -: low BBB permeation predicted, Pe (×10-6 cm s-1) < 2.0)

Reference: article PMC9354084 (ACS Chemical Neuroscience, 2022)
